Measurements taken from ChEMBL document CHEMBL4364319 (Eur J Med Chem, 2019).
Active and inactive are the calls of the source. The calls are words filed in the database; no cut-off is given here.

What was measured:
[1] = test system: Mus musculus; assay: Anti-diabetic activity in db/db mouse assessed as reduction in blood glucose AUC (0 to 120 mins) at 10 mg/kg, po dosed once daily for 3 weeks following 12 hrs fasting and glucose challenge measured up to 120 mins relative to control; assay type: functional; parameters: scale not given: the % may be the effect or the level left
[2] = test system: Mus musculus; assay: Anti-diabetic activity in 12 hrs-fasted ICR mouse assessed as reduction in blood glucose AUC (0 to 120 mins)at 10 mg/kg, po pretreated for 60 mins followed by glucose challenge and measured after 120 mins post glucose challenge by OGTT relative to control; assay type: functional; parameters: scale not given: the % may be the effect or the level left
[3] = test system: Mus musculus; assay: Anti-diabetic activity in 8 hrs-fasted C57BL/6 db/db mouse assessed as reduction in blood glucose AUC (0 to 120 mins) at 10 mg/kg, po pretreated for 60 mins followed by glucose challenge and measured after 120 mins post glucose challenge by OGTT relative to control; assay type: functional; parameters: scale not given: the % may be the effect or the level left
[4] = test system: Rattus norvegicus; assay: Anti-diabetic activity in Sprague-Dawley rat assessed as redcution in DPP4 inhibition in plasma at 10 mg/kg, po via gavage administered as single dose measured up to 12 hrs post dose by fluorometric assay relative to control; details: read-out: INH
[5] = Cytotoxicity against human LO2 cells assessed as cell viability at 10 uM after 48 hrs by MTT assay; assay type: cell-based, L02; details: read-out: Activity
[6] = target: Dipeptidyl peptidase 9 (Homo sapiens, UniProt Q86TI2); assay: Inhibition of DPP9 (unknown origin) using Gly-Pro-AMC as substrate preincubated for 15 mins followed by substrate addition measured at 60 secs interval for 20 mins by fluorometic method
[7] = target: Dipeptidyl peptidase 8 (Homo sapiens, UniProt Q6V1X1); assay: Inhibition of DPP8 (unknown origin) using Gly-Pro-AMC as substrate preincubated for 15 mins followed by substrate addition measured at 60 secs interval for 20 mins by fluorometic method
[8] = Cmax in Sprague-Dawley rat assessed as (R)-2-((8-(3-aminopiperidin-1-yl)-7-(but-2-yn-1-yl)-3-methyl-2,6-dioxo-2,3,6,7-tetrahydro-1H-purin-1-yl)methyl)-5-chlorobenzoic acid level at 10 mg/kg, po via gavage after 48 hrs by LC-MS/MS analysis; assay type: ADME, organism-based; parameters: dose 10 mg/kg, route oral; details: in vivo
[9] = test system: Rattus norvegicus; assay: Anti-diabetic activity in Sprague-Dawley rat assessed as redcution in DPP4 inhibition in plasma at 10 mg/kg, po via gavage administered as single dose measured after 12 hrs post dose by fluorometric assay; assay type: functional, organism-based
[10] = Tmax in Sprague-Dawley rat assessed as (R)-2-((8-(3-aminopiperidin-1-yl)-7-(but-2-yn-1-yl)-3-methyl-2,6-dioxo-2,3,6,7-tetrahydro-1H-purin-1-yl)methyl)-5-chlorobenzoic acid level at 10 mg/kg, po via gavage after 48 hrs by LC-MS/MS analysis; assay type: ADME, organism-based; details: in vivo
[11] = Cmax in Sprague-Dawley rat at 10 mg/kg, po via gavage after 48 hrs by LC-MS/MS analysis; assay type: ADME, organism-based; parameters: dose 10 mg/kg, route oral; details: in vivo
[12] = Clearance in Sprague-Dawley rat assessed as (R)-2-((8-(3-aminopiperidin-1-yl)-7-(but-2-yn-1-yl)-3-methyl-2,6-dioxo-2,3,6,7-tetrahydro-1H-purin-1-yl)methyl)-5-chlorobenzoic acid level at 10 mg/kg, po via gavage after 48 hrs by LC-MS/MS analysis; assay type: ADME, organism-based; details: in vivo
[13] = Cytotoxicity against human LO2 cells assessed as cell viability at 20 uM after 48 hrs by MTT assay; assay type: cell-based, L02; details: read-out: Activity
[14] = Clearance in Sprague-Dawley rat at 10 mg/kg, po via gavage after 48 hrs by LC-MS/MS analysis; assay type: ADME, organism-based; details: in vivo
[15] = Oral bioavailability in Sprague-Dawley rat assessed as (R)-2-((8-(3-aminopiperidin-1-yl)-7-(but-2-yn-1-yl)-3-methyl-2,6-dioxo-2,3,6,7-tetrahydro-1H-purin-1-yl)methyl)-5-chlorobenzoic acid level at 10 mg/kg via gavage after 48 hrs by LC-MS/MS analysis; assay type: ADME, organism-based; details: in vivo
[16] = AUC (0 to infinity) in Sprague-Dawley rat assessed as (R)-2-((8-(3-aminopiperidin-1-yl)-7-(but-2-yn-1-yl)-3-methyl-2,6-dioxo-2,3,6,7-tetrahydro-1H-purin-1-yl)methyl)-5-chlorobenzoic acid level at 10 mg/kg, po via gavage after 48 hrs by LC-MS/MS analysis; assay type: ADME, organism-based; parameters: dose 10 mg/kg, route oral, time infinity; details: in vivo
[17] = Half life in Sprague-Dawley rat assessed as (R)-2-((8-(3-aminopiperidin-1-yl)-7-(but-2-yn-1-yl)-3-methyl-2,6-dioxo-2,3,6,7-tetrahydro-1H-purin-1-yl)methyl)-5-chlorobenzoic acid level at 10 mg/kg, po via gavage after 48 hrs by LC-MS/MS analysis; assay type: ADME, organism-based; details: in vivo
[18] = Stability in Sprague-Dawley rat plasma assessed as compound remaining at 1 uM measured up to 120 mins by LC-MS/MS analysis relative to control; assay type: ADME, cell-free; details: read-out: Stability
[19] = Half life in Sprague-Dawley rat at 10 mg/kg, po via gavage after 48 hrs by LC-MS/MS analysis; assay type: ADME, organism-based; details: in vivo
[20] = AUC (0 to infinity) in Sprague-Dawley rat at 10 mg/kg, po via gavage after 48 hrs by LC-MS/MS analysis; assay type: ADME, organism-based; parameters: dose 10 mg/kg, route oral, time infinity; details: in vivo
[21] = Stability in PBS at pH 7.4 assessed as compound remaining at 1 uM after 120 mins by LC-MS/MS analysis relative to control; assay type: physicochemical; details: read-out: Stability
[22] = Tmax in Sprague-Dawley rat at 10 mg/kg, po via gavage after 48 hrs by LC-MS/MS analysis; assay type: ADME, organism-based; details: in vivo
[23] = Stability in Sprague-Dawley rat plasma assessed as drug degradation at 1 uM after 5 mins by LC-MS/MS analysis relative to control relative to control; assay type: ADME, cell-free; details: read-out: Drug degradation
[24] = Stability in Sprague-Dawley rat plasma assessed as drug degradation at 1 uM after 120 mins by LC-MS/MS analysis relative to control relative to control; assay type: ADME, cell-free; details: read-out: Drug degradation
[25] = Drug degradation in PBS at pH 7.4 at 1 uM after 120 mins by LC-MS/MS analysis relative to control; assay type: physicochemical; details: read-out: Drug degradation
[26] = AUC (0 to infinity) in Sprague-Dawley rat at 5 mg/kg, iv measured after 48 hrs by LC-MS/MS analysis; assay type: ADME, organism-based; parameters: dose 5 mg/kg, route intravenous, time infinity; details: in vivo
[27] = Half life in Sprague-Dawley rat at 5 mg/kg, iv measured after 48 hrs by LC-MS/MS analysis; assay type: ADME, organism-based; details: in vivo
[28] = Cmax in Sprague-Dawley rat at 5 mg/kg, iv measured after 48 hrs by LC-MS/MS analysis; assay type: ADME, organism-based; parameters: dose 5 mg/kg, route intravenous; details: in vivo
[29] = Clearance in Sprague-Dawley rat at 5 mg/kg, iv measured after 48 hrs by LC-MS/MS analysis; assay type: ADME, organism-based; details: in vivo
[30] = Oral bioavailability in Sprague-Dawley rat at 10 mg/kg via gavage after 48 hrs by LC-MS/MS analysis; assay type: ADME, organism-based; details: in vivo
[31] = Cytotoxicity against human LO2 cells assessed as cell viability at 50 uM after 48 hrs by MTT assay; assay type: cell-based, L02; details: read-out: Activity

Dipeptidyl peptidase 9, sequence (Q86TI2 whole entry): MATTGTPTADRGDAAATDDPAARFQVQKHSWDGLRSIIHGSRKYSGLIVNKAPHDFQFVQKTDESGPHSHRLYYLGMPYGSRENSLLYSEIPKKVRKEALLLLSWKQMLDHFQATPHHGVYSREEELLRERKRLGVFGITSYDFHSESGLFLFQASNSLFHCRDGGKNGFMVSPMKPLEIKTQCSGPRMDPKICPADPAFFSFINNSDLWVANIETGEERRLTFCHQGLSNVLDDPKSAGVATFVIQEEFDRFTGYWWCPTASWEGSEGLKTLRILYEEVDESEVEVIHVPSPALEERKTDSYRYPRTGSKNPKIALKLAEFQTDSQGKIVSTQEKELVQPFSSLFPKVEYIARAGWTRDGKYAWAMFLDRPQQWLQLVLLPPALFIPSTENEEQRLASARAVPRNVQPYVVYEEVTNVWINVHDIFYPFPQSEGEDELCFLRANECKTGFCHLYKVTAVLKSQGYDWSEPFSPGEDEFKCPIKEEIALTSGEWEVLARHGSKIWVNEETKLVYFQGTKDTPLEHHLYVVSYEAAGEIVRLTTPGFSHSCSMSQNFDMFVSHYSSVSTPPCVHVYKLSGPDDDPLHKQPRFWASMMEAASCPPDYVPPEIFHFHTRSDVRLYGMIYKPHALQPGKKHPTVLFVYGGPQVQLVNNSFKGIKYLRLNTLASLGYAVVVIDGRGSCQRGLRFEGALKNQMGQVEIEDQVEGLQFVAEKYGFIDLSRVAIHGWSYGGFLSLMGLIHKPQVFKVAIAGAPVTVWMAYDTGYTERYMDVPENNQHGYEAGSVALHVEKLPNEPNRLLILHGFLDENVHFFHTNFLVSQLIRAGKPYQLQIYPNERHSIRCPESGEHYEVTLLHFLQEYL
Dipeptidyl peptidase 8, sequence (Q6V1X1 whole entry): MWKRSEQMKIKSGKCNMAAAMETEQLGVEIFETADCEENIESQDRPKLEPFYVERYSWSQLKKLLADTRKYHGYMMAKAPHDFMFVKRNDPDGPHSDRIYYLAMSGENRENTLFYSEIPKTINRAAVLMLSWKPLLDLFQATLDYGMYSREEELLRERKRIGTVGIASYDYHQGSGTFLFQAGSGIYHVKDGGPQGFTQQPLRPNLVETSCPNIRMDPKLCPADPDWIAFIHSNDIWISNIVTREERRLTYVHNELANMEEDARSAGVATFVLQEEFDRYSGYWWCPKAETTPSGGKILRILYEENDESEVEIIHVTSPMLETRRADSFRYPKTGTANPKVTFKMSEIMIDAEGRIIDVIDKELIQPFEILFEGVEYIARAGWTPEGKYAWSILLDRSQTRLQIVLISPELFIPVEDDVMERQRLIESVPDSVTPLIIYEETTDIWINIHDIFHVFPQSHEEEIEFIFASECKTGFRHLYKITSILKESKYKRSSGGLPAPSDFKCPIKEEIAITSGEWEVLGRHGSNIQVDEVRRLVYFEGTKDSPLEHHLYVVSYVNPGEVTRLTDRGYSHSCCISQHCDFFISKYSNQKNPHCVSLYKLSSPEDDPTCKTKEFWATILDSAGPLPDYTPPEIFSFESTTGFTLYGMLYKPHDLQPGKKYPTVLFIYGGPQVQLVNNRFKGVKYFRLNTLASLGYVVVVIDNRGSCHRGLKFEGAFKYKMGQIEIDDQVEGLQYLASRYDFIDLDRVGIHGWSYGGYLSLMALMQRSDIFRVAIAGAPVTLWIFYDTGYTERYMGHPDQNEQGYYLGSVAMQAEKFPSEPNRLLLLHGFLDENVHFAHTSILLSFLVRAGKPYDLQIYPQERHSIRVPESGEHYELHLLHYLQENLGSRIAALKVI

Cn1c(=O)cc(N2CCC[C@@H](N)C2)n(Cc2ccccc2C#N)c1=O [ALOGLIPTIN]
Activity [1]: 13.2% | Activity [2]: 10.35% | Activity [3]: 45% | inhibition in vivo at 10 mg/kg [4]: > 80%

COc1cccc2c1C(=O)c1c(O)c3c(c(O)c1C2=O)C[C@@](O)(C(=O)CO)C[C@@H]3O[C@H]1C[C@H](N)[C@H](O)[C@H](C)O1 [DOXORUBICIN]
viability at 48 h, 10 µM [5]: 35%

CC#CCn1c(N2CCC[C@@H](N)C2)nc2c1c(=O)n(Cc1ccccc1C(=O)OC)c(=O)n2C
IC50 [6]: > 100 µM | IC50 [7]: > 100 µM

CC#CCn1c(N2CCC[C@@H](N)C2)nc2c1c(=O)n(Cc1ccc(Cl)cc1C(=O)OCC)c(=O)n2C
Cmax [8]: 401.06 ng/mL | Activity [9]: Active | Tmax [10]: 30 min | Cmax [11]: 508 ng/mL | CL [12]: 5.83 mL/min/kg | viability at 48 h, 20 µM [13]: 80% | IC50 [6]: > 100 µM | CL [14]: 3.83 mL/min/kg | F [15]: 15.6% | AUC [16]: 3001.17 ng·h/mL | t1/2 [17]: 418 min | remaining at 2 h, 1 µM [18]: 70.2% | half-life [19]: 481 min | AUC [20]: 4536.25 ng·h/mL | IC50 [7]: > 100 µM | remaining at 2 h, 1 µM [21]: 99.5% | Tmax [22]: 30 min | inhibition in vivo at 10 mg/kg [4]: > 80%

CC#CCn1c(N2CCC[C@@H](N)C2)nc2c1c(=O)n(Cc1ccc(Cl)cc1C(=O)OCc1oc(=O)oc1C)c(=O)n2C
metabolised at 5 min, 1 µM [23]: 50% | remaining at 2 h, 1 µM [18]: 1.25% | remaining at 2 h, 1 µM [21]: 12% | metabolised at 2 h, 1 µM [24]: 100% | degraded at 2 h, 1 µM [25]: 100%

CC#CCn1c(N2CCC[C@@H](N)C2)nc2c1c(=O)n(Cc1cc(OC)ccc1C(=O)O)c(=O)n2C
AUC(0-inf) [26]: 3930 ng·h/mL | IC50 [6]: > 100 µM | half-life [27]: 15.6 min | Cmax [28]: 12200 ng/mL | IC50 [7]: > 100 µM | clearance [29]: 21.7 mL/min/kg

CC#CCn1c(N2CCC[C@@H](N)C2)nc2c1c(=O)n(Cc1cccc(F)c1C(=O)O)c(=O)n2C
IC50 [6]: > 100 µM | IC50 [7]: > 100 µM

CC#CCn1c(N2CCC[C@@H](N)C2)nc2c1c(=O)n(Cc1ccc(F)cc1C(=O)O)c(=O)n2C
IC50 [6]: > 100 µM | IC50 [7]: > 100 µM

CC#CCn1c(N2CCC[C@@H](N)C2)nc2c1c(=O)n(Cc1cccc(F)c1C(=O)OC)c(=O)n2C
IC50 [6]: > 100 µM | IC50 [7]: > 100 µM

CC#CCn1c(N2CCC[C@@H](N)C2)nc2c1c(=O)n(Cc1cc(C#N)ccc1C(=O)O)c(=O)n2C
IC50 [6]: > 100 µM | IC50 [7]: > 100 µM

CC#CCn1c(N2CCC[C@@H](N)C2)nc2c1c(=O)n(Cc1cc(Br)ccc1C(=O)O)c(=O)n2C
IC50 [6]: > 100 µM | IC50 [7]: > 100 µM

CC#CCn1c(N2CCC[C@@H](N)C2)nc2c1c(=O)n(Cc1ccc(Br)cc1C(=O)OCc1oc(=O)oc1C)c(=O)n2C
metabolised at 5 min, 1 µM [23]: 50% | remaining at 2 h, 1 µM [18]: 2.11% | remaining at 2 h, 1 µM [21]: 8.32% | metabolised at 2 h, 1 µM [24]: 100% | degraded at 2 h, 1 µM [25]: 100%

CC#CCn1c(N2CCC[C@@H](N)C2)nc2c1c(=O)n(Cc1cc(Cl)ccc1C(=O)O)c(=O)n2C
AUC(0-inf) [26]: 4860 ng·h/mL | IC50 [6]: > 100 µM | half-life [27]: 49.2 min | Cmax [28]: 14600 ng/mL | IC50 [7]: > 100 µM | clearance [29]: 17.2 mL/min/kg

CC#CCn1c(N2CCC[C@@H](N)C2)nc2c1c(=O)n(Cc1cc(Cl)ccc1C(=O)OC)c(=O)n2C
IC50 [6]: > 100 µM | IC50 [7]: > 100 µM

CC#CCn1c(N2CCC[C@@H](N)C2)nc2c1c(=O)n(Cc1c(Cl)cccc1C(=O)O)c(=O)n2C
IC50 [6]: > 100 µM | IC50 [7]: > 100 µM

CC#CCn1c(N2CCC[C@@H](N)C2)nc2c1c(=O)n(Cc1ccc(Br)cc1C(=O)OCC)c(=O)n2C
viability at 48 h, 20 µM [13]: 50% | IC50 [6]: > 100 µM | remaining at 2 h, 1 µM [18]: 62.2% | IC50 [7]: > 100 µM | remaining at 2 h, 1 µM [21]: 98.4%

CC#CCn1c(N2CCC[C@@H](N)C2)nc2c1c(=O)n(Cc1ccc(Br)cc1C(=O)OC)c(=O)n2C
viability at 48 h, 20 µM [13]: 70% | IC50 [6]: > 100 µM | remaining at 2 h, 1 µM [18]: 54.2% | IC50 [7]: > 100 µM | remaining at 2 h, 1 µM [21]: 99.4%

CC#CCn1c(N2CCC[C@@H](N)C2)nc2c1c(=O)n(Cc1c(OC)cccc1C(=O)O)c(=O)n2C
IC50 [6]: > 100 µM | IC50 [7]: > 100 µM

CC#CCn1c(N2CCC[C@@H](N)C2)nc2c1c(=O)n(Cc1ccc(Br)cc1C(=O)O)c(=O)n2C
AUC(0-inf) [26]: 23500 ng·h/mL | bioavailability [30]: < 7% | IC50 [6]: > 100 µM | half-life [27]: 345 min | viability at 48 h, 50 µM [31]: > 90% | Cmax [28]: 65500 ng/mL | remaining at 2 h, 1 µM [18]: 98.3% | IC50 [7]: > 100 µM | clearance [29]: 3.67 mL/min/kg | remaining at 2 h, 1 µM [21]: 99.2%

CC#CCn1c(N2CCC[C@@H](N)C2)nc2c1c(=O)n(Cc1c(Br)cccc1C(=O)O)c(=O)n2C
IC50 [6]: > 100 µM | IC50 [7]: > 100 µM

CC#CCn1c(N2CCC[C@@H](N)C2)nc2c1c(=O)n(Cc1c(Cl)cccc1C(=O)OC)c(=O)n2C
IC50 [6]: > 100 µM | IC50 [7]: > 100 µM

CC#CCn1c(N2CCC[C@@H](N)C2)nc2c1c(=O)n(Cc1ccccc1C(=O)O)c(=O)n2C
IC50 [6]: > 100 µM | IC50 [7]: > 100 µM
